Assay results taken from US9018208B2, “Heterocycles as potassium channel modulators” (Icagen Inc., priority 2007, dated 2015).

Tested on: SH-SY5Y M-currents (KCNQ2, KCNQ3 and KCNQ5)
Experiment: SH-SY5Y native cell line FLIPR assay (voltage-sensitive dye DiBAC)
Assay type: cell-based, mouse neuroblastoma, rat glioma hybrid cell line
Details: FLIPR assay, SH-SY5Y native cell line; Table 1; read-out: SH-SY5Y EC50
Excerpt: SH-SY5Y cells, a mouse neuroblastoma, rat glioma hybrid cell line, functionally express M-currents (Robbins et al., J. Physiol. 451: 159-85 (1992). SH-SY5Y M-currents are likely comprised, at least in part, of KCNQ2, KCNQ3 and KCNQ5, since these genes are reportedly robustly expressed in differentiated SH-SY5Y cells (Selyanko et al., J. Neurosci. 19(18): 7742-56 (1999); Schroeder et al., J. Biol. Chem. 275(31): 24089-95 (2000)) and KCNQ3 dominant-negative constructs reduce M-current density in these cells (Selyanko et al., J. Neurosci. 22(5): RC212 (2002).
SH-SY5Y were maintained in DMEM (high glucose) supplemented with 10% fetal bovine serum, 0.05 mM pyridoxine, 0.1 mM hypoxanthine, 400 nM aminopterin, […], 50 μgml^−1 gentamycin and 10 mM HEPES, in an incubator at 37° C. with a humidified atmosphere of 5% CO2. Cells were plated in 96 well plates differentiated by addition of 10 μM PGE1 and 50 μM isomethylbutylxanthine to the growth media prior to study.
Differentiated SH-SY5Y cells were loaded with voltage-sensitive dye by incubation in Earls Balanced Salt Solution (EBSS) containing […] DiBAC for 1 h. Following loading, drug solution containing […] DiBAC was added to each well. Changes in fluorescence were measured every 30 s for 25 min. The maximum change in fluorescence was measured and expressed as a percentage of the maximum response obtained in the presence of a positive control agent.

EC50, 0.5 to 3 µM:
Cc1ccc2nc(NC(=O)CC(C)(C)C)c(C3CC3)n2n1 [Compound 74, N-(3-cyclopropyl-6-methylimidazo[1,2-b]pyridazin-2-yl)-3,3-dimethylbutanamide]
Cc1ccc2nc(NC(=O)C3CCC(F)(F)CC3)c(C3CC3)n2n1 [Compound 78, N-(3-cyclopropyl-6-methylimidazo[1,2-b]pyridazin-2-yl)-4,4-difluorocyclohexanecarboxamide]
O=C(Cc1ccc(F)cc1F)Nc1nc2ccc(C(F)(F)F)cn2c1C1CC1 [Compound 79, N-(3-cyclopropyl-6-(trifluoromethyl)imidazo[1,2-a]pyridin-2-yl)-2-(2,4-difluorophenyl)acetamide]
O=C(Nc1nc2ccc(C(F)(F)F)cn2c1C1CC1)C1CC1(F)F (centres unmarked) [Compound 85, N-(3-cyclopropyl-6-(trifluoromethyl)imidazo[1,2-a]pyridin-2-yl)-2,2-difluorocyclopropanecarboxamide]
CC(CC(=O)Nc1nc2ccccn2c1CC(C)(C)C)C(F)(F)F (centres unmarked) [Compound 86, 4,4,4-trifluoro-3-methyl-N-(3-neopentylimidazo[1,2-a]pyridin-2-yl)butanamide]
CC(C)(C)Cc1c(NC(=O)C2CCC(F)(F)CC2)nc2ccccn12 [Compound 87, 4,4-difluoro-N-(3-neopentylimidazo[1,2-a]pyridin-2-yl)cyclohexanecarboxamide]
CC(C)(C)CC(=O)Nc1nc2ccccn2c1CC(C)(C)C [Compound 88, 3,3-dimethyl-N-(3-neopentylimidazo[1,2-a]pyridin-2-yl)butanamide]
C[C@@H](CC(=O)Nc1nc2ccc(C(F)(F)F)cn2c1C1CC1)C(F)(F)F [Compound 90, (S)—N-(3-cyclopropyl-6-(trifluoromethyl)imidazo[1,2-a]pyridin-2-yl)-4,4,4-trifluoro-3-methylbutanamide]

EC50, 3 to 10 µM:
Cc1ccc2nc(NC(=O)CC(C)C(F)(F)F)c(C3CC3)n2n1 (centres unmarked) [Compound 76, N-(3-cyclopropyl-6-methylimidazo[1,2-b]pyridazin-2-yl)-4,4,4-trifluoro-3-methylbutanamide]
Cc1cccc2nc(NC(=O)CC(C)(C)C)c(C3CC3)n12 [Compound 81, N-(3-cyclopropyl-5-methylimidazo[1,2-a]pyridin-2-yl)-3,3-dimethylbutanamide]
CC(C)(C)CC(=O)Nc1nc2ccc(C(F)(F)F)cn2c1-c1nccs1 [Compound 82, 3,3-dimethyl-N-(3-(thiazol-2-yl)-6-(trifluoromethyl)imidazo[1,2-a]pyridin-2-yl)butanamide]
CC(CC(=O)Nc1nc2ccc(C(F)(F)F)cn2c1-c1nccs1)C(F)(F)F (centres unmarked) [Compound 83, 4,4,4-trifluoro-3-methyl-N-(3-(thiazol-2-yl)-6-(trifluoromethyl)imidazo[1,2-a]pyridin-2-yl)butanamide]

EC50, < 0.5 µM:
Cc1ccc2nc(NC(=O)CC(C)(C)C)c(CC(C)(C)C)n2n1 [Compound 67, 3,3-dimethyl-N-(6-methyl-3-neopentylimidazo[1,2-b]pyridazin-2-yl)butanamide]
CC(CC(=O)Nc1nc2ccc(C(F)(F)F)cn2c1C1CC1)C(F)(F)F (centres unmarked) [Compound 69, N-(3-cyclopropyl-6-(trifluoromethyl)imidazo[1,2-a]pyridin-2-yl)-4,4,4-trifluoro-3-methylbutanamide]
O=C(Cc1ccc(F)cc1)Nc1nc2ccc(C(F)(F)F)cn2c1C1CC1 [Compound 70, N-(3-cyclopropyl-6-(trifluoromethyl)imidazo[1,2-a]pyridin-2-yl)-2-(4-fluorophenyl)acetamide]
CC(C)(C)Cc1c(NC(=O)CC2CCCC2(F)F)nc2ccc(C(F)(F)F)cn12 (centres unmarked) [Compound 71, 2-(2,2-difluorocyclopentyl)-N-(3-neopentyl-6-(trifluoromethyl)imidazo[1,2-a]pyridin-2-yl)acetamide]
CC(C)(C)Cc1c(NC(=O)CC2CCCC2)nc2ccc(C(F)(F)F)cn12 [Compound 72, 2-cyclopentyl-N-(3-neopentyl-6-(trifluoromethyl)imidazo[1,2-a]pyridin-2-yl)acetamide]
CC(C)(C)Cc1c(NC(=O)C2CCC(F)(F)CC2)nc2ccc(C(F)(F)F)cn12 [Compound 73, 4,4-difluoro-N-(3-neopentyl-6-(trifluoromethyl)imidazo[1,2-a]pyridin-2-yl)cyclohexanecarboxamide]
O=C(Nc1nc2ccc(C(F)(F)F)cn2c1C1CC1)C1CCC(F)(F)CC1 [Compound 75, N-(3-cyclopropyl-6-(trifluoromethyl)imidazo[1,2-a]pyridin-2-yl)-4,4-difluorocyclohexanecarboxamide]
O=C(Cc1ccc(F)c(F)c1)Nc1nc2ccc(C(F)(F)F)cn2c1C1CC1 [Compound 77, N-(3-cyclopropyl-6-(trifluoromethyl)imidazo[1,2-a]pyridin-2-yl)-2-(3,4-difluorophenyl)acetamide]
O=C(Cc1cc(F)cc(F)c1)Nc1nc2ccc(C(F)(F)F)cn2c1C1CC1 [Compound 80, N-(3-cyclopropyl-6-(trifluoromethyl)imidazo[1,2-a]pyridin-2-yl)-2-(3,5-difluorophenyl)acetamide]
O=C(Cc1ccc(F)cc1)Nc1nc2ccc(C(F)(F)F)cn2c1-c1nccs1 [Compound 84, 2-(4-fluorophenyl)-N-(3-(thiazol-2-yl)-6-(trifluoromethyl)imidazo[1,2-a]pyridin-2-yl)acetamide]

Same assay, conditions: FLIPR assay, SH-SY5Y native cell line; Table 2; read-out: SH-SY5Y EC50

EC50, 0.5 to 3 µM:
O=C(Cc1ccc(F)cc1)Nc1nc2ccc(F)cn2c1-c1ccccc1 [Compound 92, N-(6-fluoro-3-phenylimidazo[1,2-a]pyridin-2-yl)-2-(4-fluorophenyl)acetamide]
CC(C)(C)CC(=O)Nc1nc2ccc(F)cn2c1-c1ccccc1 [Compound 93, N-(6-fluoro-3-phenylimidazo[1,2-a]pyridin-2-yl)-3,3-dimethylbutanamide]
O=C(Cc1ccccc1)Nc1nc2ccc(F)cn2c1-c1ccccc1 [Compound 96, N-(6-fluoro-3-phenylimidazo[1,2-a]pyridin-2-yl)-2-phenylacetamide]
O=C(CCC(F)(F)F)Nc1nc2ccc(F)cn2c1-c1ccccc1 [Compound 97, 4,4,4-trifluoro-N-(6-fluoro-3-phenylimidazo[1,2-a]pyridin-2-yl)butanamide]
O=C(CC1CCCC1)Nc1nc2cc(C(F)(F)F)ccn2c1-c1ccccc1 [Compound 98, 2-cyclopentyl-N-(3-phenyl-7-(trifluoromethyl)imidazo[1,2-a]pyridin-2-yl)acetamide]
CC(C)(C)CC(=O)Nc1nc2cc(C(F)(F)F)ccn2c1-c1ccccc1 [Compound 100, 3,3-dimethyl-N-(3-phenyl-7-(trifluoromethyl)imidazo[1,2-a]pyridin-2-yl)butanamide]
O=C(Cc1ccccc1)Nc1nc2cc(C(F)(F)F)ccn2c1-c1ccccc1 [Compound 101, 2-phenyl-N-(3-phenyl-7-(trifluoromethyl)imidazo[1,2-a]pyridin-2-yl)acetamide]

EC50, 3 to 10 µM:
O=C(Nc1nc2ccc(F)cn2c1-c1ccccc1)C(F)(F)F [Compound 91, 2,2,2-trifluoro-N-(6-fluoro-3-phenylimidazo[1,2-a]pyridin-2-yl)acetamide]
O=C(CC(F)(F)F)Nc1nc2ccc(F)cn2c1-c1ccccc1 [Compound 95, 3,3,3-trifluoro-N-(6-fluoro-3-phenylimidazo[1,2-a]pyridin-2-yl)propanamide]
O=C(CC(F)(F)F)Nc1nc2cc(C(F)(F)F)ccn2c1-c1ccccc1 [Compound 104, 3,3,3-trifluoro-N-(3-phenyl-7-(trifluoromethyl)imidazo[1,2-a]pyridin-2-yl)propanamide]
O=C(CCC(F)(F)F)Nc1nc2cc(C(F)(F)F)ccn2c1-c1ccccc1 [Compound 105, 4,4,4-trifluoro-N-(3-phenyl-7-(trifluoromethyl)imidazo[1,2-a]pyridin-2-yl)butanamide]

EC50, < 0.5 µM:
O=C(CC1CCCC1)Nc1nc2ccc(F)cn2c1-c1ccccc1 [Compound 94, 2-cyclopentyl-N-(6-fluoro-3-phenylimidazo[1,2-a]pyridin-2-yl)acetamide]
O=C(Cc1ccc(F)cc1)Nc1nc2cc(C(F)(F)F)ccn2c1-c1ccccc1 [Compound 99, 2-(4-fluorophenyl)-N-(3-phenyl-7-(trifluoromethyl)imidazo[1,2-a]pyridin-2-yl)acetamide]
O=C(Cc1ccc(F)cc1)Nc1nc2ccc(F)cn2c1-c1ccc(F)cc1 [Compound 102, N-(6-fluoro-3-(4-fluorophenyl)imidazo[1,2-a]pyridin-2-yl)-2-(4-fluorophenyl)acetamide]
CC(C)(C)CC(=O)Nc1nc2ccc(F)cn2c1-c1ccc(F)cc1 [Compound 103, N-(6-fluoro-3-(4-fluorophenyl)imidazo[1,2-a]pyridin-2-yl)-3,3-dimethylbutanamide]

Same assay, conditions: read-out: SH-SY5Y_EC50

EC50, 0.732 µM:
O=C(Cc1ccc(F)cc1)Nc1nc2ccc(F)cn2c1-c1ccccc1 [Compound 92, N-(6-fluoro-3-phenylimidazo[1,2-a]pyridin-2-yl)-2-(4-fluorophenyl)acetamide]
